# Test results published in patent US12251373B2, “Compounds and methods of treating retinal degeneration” (CASE WESTERN RESERVE UNIVERSITY, priority 2017, dated 2025).
# How the values were obtained:
# C57BL/6 mice = test: Retinoid cycle analyses (11-cis-retinyl oxime after bleaching); assay type: in vivo, mouse; conditions: 200 mg kg−1 bw i.p., compared to DMSO
# Procedure: To test if treatment with YC-001 affects visual pigment regeneration, we quantified the 11-cis-retinyl oxime extracted from retinas of C57BL/6 mice after different periods of dark adaptation following exposure to bright light. Mice at 6 weeks of age were administered YC-001 at 200 mg kg^−1 bw via i.p. injection. At 30 min following YC-001 administration, eyes were dilated with 1% tropicamide. Mice then were anesthetized with a cocktail containing 20 mg mL^−1 of ketamine and 1.75 mg mL^−1 of xylazine at a dose of 4 μL g^−1 bw. Anesthetized mice were exposed to bright light with an intensity of 10,000 lux for 10 min to bleach about 90% of the rhodopsin pigment. Mice then were returned to the dark for recovery. Animals then were euthanized at 0, 2, 4, 6 or 24 h after bleaching and recovery in the dark, and their eyes were removed and homogenized in 1 mL of 1:1 PBS:ethanol mixture (v/v) containing 40 mM hydroxylamine. […] 11-cis-Retinyl oxime released from the regenerated rhodopsin pigments were separated on an Agilent Sil column (5 μm, 4.6×250 mm) with an isocratic flow of 10% ethyl acetate in hexanes (1.5 mL min^−1) and detected at 325 nm. Amounts of 11-cis-retinyl oximes per eye were quantified by normalizing the peak area to an 11-cis-retinyl oxime standard. 11-cis-Retinyl oximes were quantified in three eye samples per condition, and the means and s.d.s were calculated.
# [1] = Pharmacokinetics of YC-001 in mouse plasma; assay type: in vivo
# Procedure: C57BL/6J mice ranging from 8 to 12 weeks of age were purchased from Jackson Labs. For administration, YC-001 was dissolved in DMSO at 160 mg mL^−1. To obtain the blood clearance curve for YC-001, each animal was treated by intraperitoneal injection of YC-001 at 200 mg kg^−1 bw. After administration, blood was collected at 5, 10, 15, 20, 30, 45, 60 and 90 min from the orbital sinus and dropped into K2EDTA blood collection tubes (FisherScientific). Mice were anesthetized with a ketamine/xylazine cocktail two min before blood collection. The blood samples were then incubated at 4° C. for 2 h before centrifugation at 1,800×g for 20 min to collect the supernatant that was the plasma. Plasma was mixed with twice the volume of methanol and then stored at −80° C. YC-001 was extracted from the samples (300 to 600 μL) with 0.6 mL chloroform. The chloroform fraction was collected, dried, and the extracted organic compounds were dissolved in 0.25 mL of methanol. One hundred-μL of each sample was injected onto an Eclipse XDB-C18 column (4.6×150 mm, 5 μm) and YC-001 was detected and quantified as described in the section Metabolic stability of YC-001.
# [2] = Metabolic stability in mouse liver microsomes; assay type: in vitro ADME; conditions: 5 μM, with NADPH, vs verapamil
# Procedure: A standard metabolic stability assay was performed in the presence of mouse or human liver microsomes. YC-001 (5 μM) was incubated with the microsomes (0.125 mg mL^−1) resuspended in 0.2 mL of PBS buffer, pH 7.4 composed of 10 mM Na2HPO4, 1.8 mM KH2PO4, 137 mM NaCl, and 2.7 mM KCl. The enzymatic reaction to produce oxidized metabolites was initiated by addition of NADPH (1 mM). Samples were incubated at 37° C. for up to 240 min. Incubation without the cofactor was conducted in parallel to assess NADPH-independent clearance. The reactions were stopped with 0.2 mL of methanol followed by 0.3 mL chloroform. Residual YC-001 was extracted by vigorous shaking. To facilitate phase separation, the samples were spun down for 2 min, 15,000×g. The chloroform fraction was collected, dried down, and the extracted organic compounds were redissolved in 0.2 mL of methanol. To quantify YC-001, the samples were injected onto an Eclipse XDB-C18 column (4.6×150 mm, 5 μm) (Agilent Technologies) equilibrated with solvent composed of 30% acetonitrile in water (v/v), and 0.1% formic acid. YC-001 was eluted in a gradient of acetonitrile in water (30-100%) developed within 15 min at a flow rate of 1 mL min^−1, detected at 350 nm, and quantified by correlating peak areas with known quantities of an original synthetic standard. […]
structure (smiles),measurement,setting,value
O=C1OCC(c2ccc(Cl)s2)=C1c1cccs1 [YC-001],recovery of 11-cis-retinyl oxime after photobleaching,C57BL/6 mice,little difference
same,elimination rate constant (Ke),[1]; 0.693/T1/2,0.0201 min⁻¹
same,volume of distribution (Vd),[1]; Dose/C0,27.5 L kg−1 bw
same,Clearance,[1]; Ke×Vd,0.552 L min−1 kg−1 bw
same,initial clearance in liver microsomes,[2],even higher initial clearance
